Consider 88 compounds from a melting point compilation (Tetko et al.; mined from patent text by program, amines drawn as free bases though some values may be those of a salt).

Turning to `CCCCC(=O)NCc1ccc(I)cc1`, the melting point was in the range of 80 to 81 °C. Consider `OCn1nnc2ccccc21`, for which the melting point is 148 °C. `COc1cc(Nc2nccc(-c3ccc(-c4nnn[nH]4)cc3)n2)cc(OC)c1OC` yielded a melting point of 246 to 247 °C. Regarding `NS(=O)(=O)c1cccc(NC(=O)Nc2c(F)c(F)c(F)c(F)c2F)c1`, the melting point is 224 to 227 °C.

Compound `COc1c(C)cc2c(c1C)C(c1ccc(C(C)C)cc1)C(C)(C)O2` (stereo not drawn) gave a melting point of 121 to 123 °C. In the case of `COC(=O)N[C@@H](Cc1ccccc1)[C@H](O)CCl`, the melting point is 163 to 164 °C. Then `Cc1cccc2oc(C(=O)Nc3ccc(-c4ccc(S(=O)(=O)NC(C(=O)O)C(C)C)cc4)cc3)c(C)c12` (stereo not drawn), with 250 to 252 °C.

The compound `Clc1ccc(-c2nc(Cl)nc(Cl)n2)c(Cl)c1` yielded a melting point of 118 °C. For `Cc1ccc2c(c1)c(Cl)c(C#N)c(=O)n2Cc1ccc(F)cc1`, the melting point was 206 °C. In the case of `COc1ccc(Oc2ccc(S(C)(=O)=O)cc2)cc1`, the melting point was in the range of 152 to 153 °C. In turn, `Cc1c(C)c2c(c(C)c1OCCc1ccccc1)C(c1ccc(C(C)C)cc1)C(C)(C)O2` (stereo not drawn) came in with a melting point of 72 to 74 °C. For the compound `CCCn1c(=O)c2[nH]c(/C=C/c3ccc(OCC)cc3)nc2n(CCC)c1=O`, the melting point is 262 °C.

`COc1cccc([C@H]2O[C@H](CC(=O)NS(C)(=O)=O)C(=O)N(CC(C)(C)CO)c3ccc(Cl)cc32)c1OC` gave a melting point of 221 to 223 °C. Compound `CC(C)(C)OC(=O)CNC1(c2ccccc2Cl)C(=O)Nc2ccc(Cl)cc21` (stereo not drawn) showed a melting point of 217 °C.

Compound `COc1ccc(-c2nn(C(C)C)c(=O)c3ccsc23)cc1` registered a melting point of 124 to 126 °C.

`CON(C)C(=O)C(O)CNC(=O)c1cc2cc(Cl)ccc2[nH]1` (racemic): the melting point was found to be 192 °C. As for `CNCCSC1=Cc2ccccc2Sc2ccc(O)cc21`, the melting point lay in the range of 147 to 149 °C. The compound `CCOC(=O)CC[C@H](NC(=O)c1ccc(CNCc2cnc3nc(NC(=O)C(C)(C)C)nc(O)c3c2)cc1)C(=O)OCC` returned a melting point of 149 to 151 °C. `c1ccc(-c2ccc3c(ccc4c5ccccc5[nH]c34)c2)cc1`: the melting point came to 254 °C. The compound `CCOC(=O)Cc1nc(-c2ccccc2)oc1C(C)C` gave a melting point of 37 to 38 °C. In turn, `O=[N+]([O-])c1cnc2c(F)c(Cl)c(F)cc2c1` showed a melting point of 174 °C. Compound `CC(C)Cn1c(C#N)c(-c2ccccc2)c2cccnc2c1=O` yielded a melting point of 221 to 222 °C. For `CC1(C)Oc2ccc(C#N)cc2[C@H](N)[C@@H]1O` (relative stereo), the melting point lay within 85 to 86 °C.

`CC(Oc1c(C(=O)O)cc(Cl)cc1[N+](=O)[O-])C(=O)O` (stereo not drawn): the melting point worked out at 190 °C.

In the case of `CCn1cc(-c2sc(NC(=O)c3ccncc3)nc2-c2ccco2)ccc1=O`, the melting point fell in the range of 285 to 289 °C. As to `COc1nc2cc([N+](=O)[O-])c(C)c(C(=O)NCc3ccccc3)c2nc1OC`, the melting point lay within 171 to 173 °C.

As to `Cc1cc(-n2cncn2)cc(I)c1N`, the melting point is 151 to 154 °C. To `COC(=O)c1ccc(Cc2cn(C)c3ccc([N+](=O)[O-])cc23)c(OC)c1` belongs 144 to 146 °C; to `COCCCNC(=O)C(C)(C(C)C)C(C)C`, 10 °C. On to `COc1cc(C=CC(=O)CCCCO)cc(OC)c1`, for which the melting point lay within 78 to 80 °C. Take `O=CN(O)C(CCc1ncc(F)cn1)CS(=O)(=O)N1CCN(c2ccc(Cl)cn2)CC1` (stereo not drawn): the melting point was in the range of 154 to 155 °C. `CCOC(=O)C(CC(N)=O)(C(=O)OCC)n1cccc1` displayed a melting point of 94 to 95 °C. For `COC(=O)c1[nH]c2ccccc2c1Oc1ccc(Cl)cc1[N+](=O)[O-]`, the melting point fell in the range of 171 to 172 °C. On to `Cn1nc(C(F)(F)F)c(CS(=O)(=O)C2=NOC(C)(C)C2)c1OC1CCCC1`, for which the melting point lay in the range of 113 to 114 °C. To `O=C(O)CCCNC(=O)c1ccc(NC(=O)c2ccccc2O)cc1` belongs 211 to 213 °C; to `O=c1c(Cc2ccccn2)cc2cccnc2n1-c1cccc([N+](=O)[O-])c1`, 229 to 231 °C.

As for `COC(=O)CN(CC(=O)OC)S(=O)(=O)c1ccc(C)cc1`, the melting point is 99 to 100 °C. For the compound `COCOCc1nc(N)c2ncc(OC)nc2n1`, the melting point lay in the range of 193 to 195 °C. As for `CNC(=O)c1cccc(Nc2ncnc3[nH]cc(C(=O)c4cccc(F)c4)c23)c1`, the melting point is greater than 300 °C. Regarding `O=C(NCCc1ccc(Cl)cc1)c1ncccc1O`, the melting point lay within 91 to 93 °C.

`CC1=NC(NC(=O)Nc2cccc(C)c2)C(=O)N(CC(=O)N2CCC(C(N)=O)CC2)c2c(C)cccc21` (stereo not drawn) displayed a melting point of 197 to 198 °C.

For `COc1ccsc1C(=O)C1C(=O)N(C(N)=O)c2ccc(Cl)cc21` (stereo not drawn), the melting point was in the range of 86 to 88 °C. `CCc1ccc(Sc2nn(-c3ccc(OC)cc3)c(=O)c(C#N)c2C)cc1`: the melting point lay in the range of 159 to 160 °C. Then `O=c1c(Br)c(OCc2ccc(F)cc2)ccn1Cc1cccc(F)c1`, with 180 to 183 °C; and `CCOC(=O)CCn1c(=O)c(=O)[nH]c2cc(C(F)(F)F)c(N)cc21`, with 262 to 263 °C. Compound `CCC(=Cc1cccnc1)C(=O)NCCCCN1CCN(C(c2ccccc2)c2ccccc2)CC1` yielded a melting point of 137 to 141 °C. Turning to `O=C1NC(=NCc2ccccc2)C(c2ccc(Br)cc2)N1c1ccc2[nH]cnc2c1` (stereo not drawn), the melting point amounted to 244 °C. To `CC(=O)OCCCC(C(=O)C=Cc1ccc(O)c(OC(F)(F)F)c1)C(=O)C=Cc1ccc(O)c(OC(F)(F)F)c1` (stereo not drawn) belongs 130 to 131 °C; to `CCCC(=O)Nc1c(C)c2c(c(Cc3ccc(C(C)C)cc3)c1C)OCC2`, 168 to 169 °C; to `CSCC[C@H](NC(=O)c1ccc(/C=C(/Cn2ccnc2)c2ccc(F)cc2)cc1)C(=O)O`, 106 °C. Then `C[Si]1(C)CCCCCCCCCCCCCC[Si](C)(C)O[Si](C)(C)CCCCCCCCCCCCCC[Si](C)(C)O1`, with 97 °C; and `COc1ccc2c(c1)C(C(=O)O)CCC2` (stereo not drawn), with 126 to 127 °C.

For `Nc1cc(C(=O)O)cc(OCc2ccccc2)c1C(=O)c1ccc(Cl)cc1`, the melting point was in the range of 196 to 197 °C.

The compound `CS(=O)(=O)c1cc(Cl)cc(-c2cccnc2-c2cccnc2)c1` had a melting point of 135 °C. As for `COc1cc(C=C(Br)Br)cc(OC)c1OCc1ccccc1`, the melting point was in the range of 76 to 77 °C.

Compound `Nc1ncnc2c1c(-c1ccc(Oc3ccccc3)cc1)cn2C1CCOCC1` gave a melting point of 193 to 194 °C. In turn, `CCN(CC)C(=O)C1=NN(c2ccccc2)C(C(N)=O)=NN1c1ccccc1` had a melting point of 239 to 240 °C.

In turn, `O=[N+]([O-])c1ccc(CCN2CCN(c3cc(Cl)nnc3Cl)CC2)c([N+](=O)[O-])c1` came in with a melting point of 145 to 146 °C. As for `CN(C)c1ccc2c(c1)N(CCCN1CCC(C(=O)O)CC1)c1ccccc1CC2`, the melting point is 198 to 202 °C.

`O=C(NO)c1ccc2c(c1)CCN(C(=O)NCCOc1ccccc1)C2` showed a melting point of 120 to 123 °C.

Turning to `O=C(NCCO)c1c([N+](=O)[O-])cccc1S(=O)(=O)NCCO`, the melting point was in the range of 176 to 178 °C.

Compound `CCOC(=O)C1C(OC)C(=O)N1c1ccc(OC)cc1` (stereo not drawn) displayed a melting point of 116 to 118 °C.

Compound `CCOC(=O)c1ccc(OCc2ccc3ccccc3c2)c(OC)c1` yielded a melting point of 86 to 87 °C.

Compound `CCCc1c(SCCCOc2ccc3c(=O)cc(CCC(=O)O)oc3c2CCC)ccc(C(C)=O)c1N` gave a melting point of 153 to 155 °C. To `CC(C)CC(C(=O)O)c1cc(Cl)c(-c2ccc(Cl)cc2)c(OCC2CC2)c1` (stereo not drawn) belongs 52 to 53 °C; to `N#Cc1ccc2oc(CCc3cc4cc(C#N)ccc4o3)cc2c1`, 243 to 244 °C; to `CSCc1c[nH]c(=O)[nH]c1=O`, 239 to 241 °C. For `CC(C)(NC(=O)C(CO)NC(=O)c1ccccc1)c1ccccc1` (stereo not drawn), the melting point was in the range of 152 to 153 °C. For the compound `Fc1ccc(Cc2ccc(NC3=NCCN3)cc2)cc1`, the melting point is 110 to 112 °C. Consider `N#Cc1c(Cl)cccc1SSc1ccc([N+](=O)[O-])cc1C(Cl)(Cl)Cl`, for which the melting point came out at 137 °C.

`CCOC(=O)c1cn(-c2ccc(F)cc2F)c2nc(N3CCC(NC(C)=O)C3)c(F)cc2c1=O` (stereo not drawn): the melting point fell in the range of 233 to 236 °C.

For `Cc1ccc2c(c1)c(=O)c1c(cnn1C)n2CC(N)=O`, the melting point was in the range of 247 to 252 °C.

`CC(=NOCCCOc1ccccc1)C(=O)O` yielded a melting point of 86 to 88 °C. `CC1(C)CCC(C)(C)c2cc3c(cc21)OCC=C3Cc1ccc(C(=O)O)cc1` yielded a melting point of 200 to 201 °C. Regarding `CC(NC(=O)c1c(F)cccc1F)C(F)(F)F` (stereo not drawn), the melting point was in the range of 167 to 168 °C.

Turning to `Cc1ccc(OP(Oc2ccc(C)cc2C(C)(C)C)Oc2ccc(C)cc2C(C)(C)C)c(C(C)(C)C)c1`, the melting point fell in the range of 114 to 115 °C. On to `O=C(O)c1cc2ccccc2nc1N[C@H](Cc1ccccc1)C(=O)O`, for which the melting point is 140 to 142 °C.

Take `COc1cc2sc(C=O)cc2c(Cl)c1OC`: the melting point is 164 to 165 °C. Then `COC(=O)Nc1cccc2c1C(=O)C1(O)c3ccc(C(C)C)cc3OC21O` (stereo not drawn), with 96 to 99 °C; and `CC(C)c1nc(COC(=O)N[C@H](C(=O)N[C@@H](Cc2ccccc2)C[C@H](O)[C@H](Cc2ccccc2)NC(=O)OCc2cncs2)C(C)C)cs1`, with 142 to 145 °C; and `CCCc1nc2c(N)nc3cc(Br)ccc3c2n1CCCONC(=O)C(C)C`, with 176 to 178 °C. `CC(C)(C)[C@@H](CO)NS(=O)(=O)c1ccc(Cl)cc1` registered a melting point of 128 to 130 °C. Consider `COC(=O)C(Oc1ccc(Cl)cc1)c1ccc(I)cc1` (stereo not drawn), for which the melting point was 122 to 125 °C. Compound `COc1ccc(S(=O)(=O)Nc2cccnc2Nc2ccc(OC(=O)c3ccccc3)cc2)cc1` yielded a melting point of 208 to 210 °C.

On to `Clc1ccc(-n2ccc(OCCOCCN3CCCCC3)n2)cc1Cl`, for which the melting point was in the range of 126 to 128 °C. `c1ccc2c(c1)CC1(c3c[nH]cn3)CCCC21` (stereo not drawn) gave a melting point of 171 to 174 °C.

In the case of `COc1ccc(C2CC(=O)OC(=O)C2)cc1OC`, the melting point was 118 to 120 °C. Consider `C[C@H](NC(=O)CCS)C(=O)O`, for which the melting point was found to be 64 °C.
